Starred links: 1 amine or outer side, 2 acyl side, 3 side chain; linkers in the order of their positions; H or OH if unused. Non-standard residues stand in square brackets, D forms with d. Residues, ends and D or L forms follow the SMILES beside them. Groups on a side chain read outwards from the residue. *: point of attachment. C18 diacid = O=C(O)CCCCCCCCCCCCCCCCC(=O)*; αMePhe(2-F) = C[C@](N)(Cc1ccccc1F)C(=O)O; γGlu = O=C(O)[C@H](CCC(=O)[*:2])N[*:1]; αMeY = C[C@](N)(Cc1ccc(O)cc1)C(=O)O; 4Pal = N[C@@H](Cc1ccncc1)C(=O)O; αMeL = CC(C)C[C@](C)(N)C(=O)O; αMeS = C[C@](N)(CO)C(=O)O; Orn = NCCC[C@H](N)C(=O)O; AEEA = NCCOCCOCC(=O)O; Aib = CC(C)(N)C(=O)O
What was measured:
Type in all cases: cell-based
[1] = biological target: T1, hGIPR (Homo sapiens, UniProt P48546); assay: Functional cAMP activity in the presence of 1% HSA; conditions: read-out: cAMP Rel EC50, hGIPR
T1 sequence (P48546 22-466): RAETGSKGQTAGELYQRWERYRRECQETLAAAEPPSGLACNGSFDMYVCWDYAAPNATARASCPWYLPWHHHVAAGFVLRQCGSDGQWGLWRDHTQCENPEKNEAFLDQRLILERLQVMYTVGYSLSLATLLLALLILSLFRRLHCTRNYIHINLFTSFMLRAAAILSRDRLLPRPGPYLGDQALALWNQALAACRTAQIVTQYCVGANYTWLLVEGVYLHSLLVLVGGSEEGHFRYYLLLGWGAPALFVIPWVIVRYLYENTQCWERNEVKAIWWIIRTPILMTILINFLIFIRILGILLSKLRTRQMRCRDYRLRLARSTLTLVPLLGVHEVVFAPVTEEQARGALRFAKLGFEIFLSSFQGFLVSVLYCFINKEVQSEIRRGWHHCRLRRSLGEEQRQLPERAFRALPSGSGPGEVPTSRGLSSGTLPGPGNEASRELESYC

[2] = biological target: T2, hGLP-1R (Homo sapiens, UniProt P43220); assay: Functional cAMP activity in the presence of 1% HSA; conditions: read-out: cAMP Rel EC50, hGLP-1R
[3] = biological target: human GcgR (Homo sapiens, UniProt P47871); assay: Functional cAMP activity in the presence of 1% HSA; conditions: read-out: cAMP Rel EC50, hGcgR
[4] = biological target: T1, hGIPR; assay: Functional cAMP activation in the presence of 0.1% casein (no HSA); conditions: in the presence of 0.1% casein (no HSA); geometric mean; read-out: Relative cAMP EC50, hGIPR;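 as to Relative cAMP EC50, hGIPR: intracellular cAMP rise after 30 min at 37 °C read by HTRF against a standard curve, scaled between buffer alone (0%) and top control ligand concentration (100%), four-parameter fit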;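 as to Relative cAMP EC50, hGLP-1R: intracellular cAMP rise after 30 min at 37 °C read by HTRF, normalized between buffer only (0%) and maximal control ligand (100%), four-parameter variable-slope fit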;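 as to Relative cAMP EC50, hGcgR: intracellular cAMP rise after 30 min at 37 °C, read by HTRF against a cAMP standard curve, scaled from buffer only (0%) to maximal control ligand response (100%)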
[5] = biological target: T2, hGLP-1R; assay: as above; conditions: in the presence of 0.1% casein (no HSA); geometric mean; read-out: Relative cAMP EC50, hGLP-1R
[6] = biological target: hGcgR (Homo sapiens, UniProt P47871); assay: as above; conditions: in the presence of 0.1% casein (no HSA); geometric mean; read-out: Relative cAMP EC50, hGcgR;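 also: intracellular cAMP rise after 30 min at 37 °C, read by HTRF against a cAMP standard curve, scaled from buffer only (0%) to maximal control ligand response (100%)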
Chain of hGcgR (P47871 26-477): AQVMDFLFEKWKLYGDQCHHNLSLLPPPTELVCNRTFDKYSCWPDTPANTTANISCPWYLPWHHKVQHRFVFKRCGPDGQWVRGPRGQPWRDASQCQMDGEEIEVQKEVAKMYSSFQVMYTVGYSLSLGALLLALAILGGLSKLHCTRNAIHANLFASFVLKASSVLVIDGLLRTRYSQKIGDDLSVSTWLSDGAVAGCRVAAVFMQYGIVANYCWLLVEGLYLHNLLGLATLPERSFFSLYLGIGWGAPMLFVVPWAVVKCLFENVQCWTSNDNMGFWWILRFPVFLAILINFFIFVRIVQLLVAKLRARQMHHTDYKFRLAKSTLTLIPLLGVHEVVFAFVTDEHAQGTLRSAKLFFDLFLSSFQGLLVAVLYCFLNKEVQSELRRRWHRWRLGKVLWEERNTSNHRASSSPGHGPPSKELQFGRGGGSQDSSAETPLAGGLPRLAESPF
Description: After a 30-minute incubation at 37° C., the resulting increase in intracellular cAMP is quantitatively determined using the CisBio CAMP Dynamic 2 HTRF Assay Kit (62AM4PEJ). Briefly, cAMP levels within the cell are detected by adding the cAMP-d2 conjugate in cell lysis buffer followed by the antibody anti-cAMP-Eu^3+-Cryptate, also in cell lysis buffer.
Intracellular cAMP levels are determined by extrapolation using a standard curve. Dose response curves of compounds are plotted as the percentage of stimulation normalized to minimum (buffer only) and maximum (maximum concentration of each control ligand) values and analyzed using a four parameter non-linear regression fit with a variable slope (Genedata Screener 13). EC50 is the concentration of compound causing half-maximal simulation in a dose response curve. Each relative EC50 value for the Geometric mean calculation is determined from a curve fitting.

Chain of human GcgR (P47871 26-477): as above
T2 sequence (P43220 24-463): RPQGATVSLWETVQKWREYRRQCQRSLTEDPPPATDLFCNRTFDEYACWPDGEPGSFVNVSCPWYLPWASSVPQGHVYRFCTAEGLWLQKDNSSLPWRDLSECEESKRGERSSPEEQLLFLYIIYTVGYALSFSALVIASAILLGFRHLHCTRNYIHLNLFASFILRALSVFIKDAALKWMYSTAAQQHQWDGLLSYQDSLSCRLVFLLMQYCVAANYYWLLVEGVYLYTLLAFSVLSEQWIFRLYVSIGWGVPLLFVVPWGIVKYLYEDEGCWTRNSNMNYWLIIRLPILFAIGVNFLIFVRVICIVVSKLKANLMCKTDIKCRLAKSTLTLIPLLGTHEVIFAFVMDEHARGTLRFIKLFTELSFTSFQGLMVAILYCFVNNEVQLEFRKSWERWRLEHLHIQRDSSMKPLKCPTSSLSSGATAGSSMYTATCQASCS

Structure (SMILES)	EC50 [1] [nM]	EC50 [2] [nM]	EC50 [3] [nM]	EC50 [4] [nM]	EC50 [5] [nM]	EC50 [6] [nM]
CC[C@H](C)[C@H](NC(=O)[C@H](Cc1ccccc1)NC(=O)[C@H](CCCN)NC(=O)C(C)(C)NC(=O)[C@H](CCC(N)=O)NC(=O)[C@H](C)NC(=O)[C@H](CCCCNC(=O)CC[C@H](NC(=O)CC[C@H](NC(=O)CCCCCCCCCCCCCCCCC(=O)O)C(=O)O)C(=O)O)NC(=O)[C@H](CCCN)NC(=O)[C@H](CC(=O)O)NC(=O)[C@H](CC(C)C)NC(=O)[C@](C)(CC(C)C)NC(=O)[C@@H](NC(=O)[C@H](CO)NC(=O)[C@H](Cc1ccncc1)NC(=O)[C@H](CC(=O)O)NC(=O)[C@H](CO)NC(=O)[C@@H](NC(=O)[C@](C)(Cc1ccccc1F)NC(=O)[C@@H](NC(=O)CNC(=O)[C@H](CCC(N)=O)NC(=O)C(C)(C)NC(=O)[C@@H](N)Cc1ccc(O)cc1)[C@@H](C)O)[C@@H](C)O)[C@@H](C)CC)C(=O)N[C@H](CCC(=O)O)C(=O)N[C@@](C)(Cc1ccc(O)cc1)C(=O)N[C@@H](CC(C)C)C(=O)N[C@@H](CC(C)C)C(=O)N[C@@H](CCC(=O)O)C(=O)NCC(=O)NCC(=O)N1CCC[C@H]1C(=O)N[C@@H](CO)C(=O)N[C@@H](CO)C(=O)NCC(=O)N[C@@H](CCC(=O)O)C(=O)N1CCC[C@H]1C(=O)N1CCC[C@H]1C(=O)N1CCC[C@H]1C(=O)N[C@@H](CCC(=O)O)C(N)=O [Example 372] (H-Y[Aib]QGT[αMePhe(2-F)]TSD[4Pal]SI[αMeL]LD[Orn]K([γGlu-γGlu-C18 diacid])AQ[Aib][Orn]FI[dE][αMeY]LLEGGPSSGEPPPE-NH2)	2.63	53.1	468	0.0161	0.333	7.54
CC[C@H](C)[C@H](NC(=O)[C@H](Cc1ccccc1)NC(=O)[C@H](CCCN)NC(=O)C(C)(C)NC(=O)[C@H](CCC(N)=O)NC(=O)[C@H](C)NC(=O)[C@H](CCCCNC(=O)CC[C@H](NC(=O)CC[C@H](NC(=O)CCCCCCCCCCCCCCCCC(=O)O)C(=O)O)C(=O)O)NC(=O)[C@H](CCCN)NC(=O)[C@H](CC(=O)O)NC(=O)[C@H](CC(C)C)NC(=O)[C@](C)(CC(C)C)NC(=O)[C@@H](NC(=O)[C@H](CO)NC(=O)[C@H](Cc1ccncc1)NC(=O)[C@H](CC(=O)O)NC(=O)[C@H](CO)NC(=O)[C@@H](NC(=O)[C@](C)(Cc1ccccc1F)NC(=O)[C@@H](NC(=O)CNC(=O)[C@H](CCC(N)=O)NC(=O)C(C)(C)NC(=O)[C@@H](N)Cc1ccc(O)cc1)[C@@H](C)O)[C@@H](C)O)[C@@H](C)CC)C(=O)N[C@H](CCC(=O)O)C(=O)N[C@@](C)(Cc1ccc(O)cc1)C(=O)N[C@@H](CC(C)C)C(=O)N[C@@H](CC(C)C)C(=O)N[C@@H](CCC(=O)O)C(=O)NCC(=O)NCC(=O)N1CCC[C@H]1C(=O)N[C@@H](CO)C(=O)N[C@@H](CO)C(=O)NC(C)(C)C(=O)N[C@@H](CCC(=O)O)C(=O)N1CCC[C@H]1C(=O)N1CCC[C@H]1C(=O)N1CCC[C@H]1C(=O)N[C@@H](CCC(=O)O)C(N)=O [Example 373] (H-Y[Aib]QGT[αMePhe(2-F)]TSD[4Pal]SI[αMeL]LD[Orn]K([γGlu-γGlu-C18 diacid])AQ[Aib][Orn]FI[dE][αMeY]LLEGGPSS[Aib]EPPPE-NH2)	1.97	54.5	666	0.0183	0.392	4.48
CC[C@H](C)[C@H](NC(=O)[C@H](Cc1ccccc1)NC(=O)[C@H](CCCN)NC(=O)C(C)(C)NC(=O)[C@H](CCC(N)=O)NC(=O)[C@H](C)NC(=O)[C@H](CCCCNC(=O)CC[C@H](NC(=O)CC[C@H](NC(=O)CCCCCCCCCCCCCCCCC(=O)O)C(=O)O)C(=O)O)NC(=O)[C@H](CCCN)NC(=O)[C@H](CC(=O)O)NC(=O)[C@H](CC(C)C)NC(=O)[C@](C)(CC(C)C)NC(=O)[C@@H](NC(=O)[C@](C)(CO)NC(=O)[C@H](Cc1ccncc1)NC(=O)[C@H](CC(=O)O)NC(=O)[C@H](CO)NC(=O)[C@@H](NC(=O)[C@](C)(Cc1ccccc1F)NC(=O)[C@@H](NC(=O)CNC(=O)[C@H](CCC(N)=O)NC(=O)C(C)(C)NC(=O)[C@@H](N)Cc1ccc(O)cc1)[C@@H](C)O)[C@@H](C)O)[C@@H](C)CC)C(=O)N[C@H](CCC(=O)O)C(=O)N[C@@](C)(Cc1ccc(O)cc1)C(=O)N[C@@H](CC(C)C)C(=O)N[C@@H](CC(C)C)C(=O)N[C@@H](CCC(=O)O)C(=O)NCC(=O)NCC(=O)N1CCC[C@H]1C(=O)N[C@@H](CO)C(=O)N[C@@H](CO)C(=O)NCC(=O)N[C@@H](CCC(=O)O)C(=O)N1CCC[C@H]1C(=O)N1CCC[C@H]1C(=O)N1CCC[C@H]1C(=O)N[C@@H](CO)C(N)=O [Example 374] (H-Y[Aib]QGT[αMePhe(2-F)]TSD[4Pal][αMeS]I[αMeL]LD[Orn]K([γGlu-γGlu-C18 diacid])AQ[Aib][Orn]FI[dE][αMeY]LLEGGPSSGEPPPS-NH2)	2.28	24.5	65.4	0.0186	0.336	0.908
CC[C@H](C)[C@H](NC(=O)[C@H](CC(C)C)NC(=O)[C@](C)(Cc1ccc(O)cc1)NC(=O)[C@@H](CCC(=O)O)NC(=O)[C@@H](NC(=O)[C@H](Cc1ccccc1)NC(=O)[C@H](CCCN)NC(=O)C(C)(C)NC(=O)[C@H](CCC(N)=O)NC(=O)[C@H](C)NC(=O)[C@H](CCCCNC(=O)CC[C@H](NC(=O)CC[C@H](NC(=O)CCCCCCCCCCCCCCCCC(=O)O)C(=O)O)C(=O)O)NC(=O)[C@H](CCCN)NC(=O)[C@H](CC(=O)O)NC(=O)[C@H](CC(C)C)NC(=O)[C@](C)(CC(C)C)NC(=O)[C@@H](NC(=O)[C@](C)(CO)NC(=O)[C@H](Cc1ccncc1)NC(=O)[C@H](CC(=O)O)NC(=O)[C@H](CO)NC(=O)[C@@H](NC(=O)[C@](C)(Cc1ccccc1F)NC(=O)[C@@H](NC(=O)CNC(=O)[C@H](CCC(N)=O)NC(=O)C(C)(C)NC(=O)[C@@H](N)Cc1ccc(O)cc1)[C@@H](C)O)[C@@H](C)O)[C@@H](C)CC)[C@@H](C)CC)C(=O)N[C@@H](CCC(=O)O)C(=O)NCC(=O)NCC(=O)N1CCC[C@H]1C(=O)N[C@@H](CO)C(=O)N[C@@H](CO)C(=O)NCC(=O)N[C@@H](CCC(=O)O)C(=O)N1CCC[C@H]1C(=O)N1CCC[C@H]1C(=O)N1CCC[C@H]1C(=O)N[C@@H](CO)C(N)=O [Example 375] (H-Y[Aib]QGT[αMePhe(2-F)]TSD[4Pal][αMeS]I[αMeL]LD[Orn]K([γGlu-γGlu-C18 diacid])AQ[Aib][Orn]FI[dE][αMeY]LIEGGPSSGEPPPS-NH2)	1.78	18	137	0.0165	0.299	1.32
CC[C@H](C)[C@H](NC(=O)[C@H](Cc1ccccc1)NC(=O)[C@H](CCCN)NC(=O)C(C)(C)NC(=O)[C@H](CCC(N)=O)NC(=O)[C@H](C)NC(=O)[C@H](CCCCNC(=O)COCCOCCNC(=O)CC[C@H](NC(=O)CC[C@H](NC(=O)CCCCCCCCCCCCCCCCC(=O)O)C(=O)O)C(=O)O)NC(=O)[C@H](CCCN)NC(=O)[C@H](CC(=O)O)NC(=O)[C@H](CC(C)C)NC(=O)[C@](C)(CC(C)C)NC(=O)[C@@H](NC(=O)[C@](C)(CO)NC(=O)[C@H](Cc1ccncc1)NC(=O)[C@H](CC(=O)O)NC(=O)[C@H](CO)NC(=O)[C@@H](NC(=O)[C@](C)(Cc1ccccc1F)NC(=O)[C@@H](NC(=O)CNC(=O)[C@H](CCC(N)=O)NC(=O)C(C)(C)NC(=O)[C@@H](N)Cc1ccc(O)cc1)[C@@H](C)O)[C@@H](C)O)[C@@H](C)CC)C(=O)N[C@H](CCC(=O)O)C(=O)N[C@@](C)(Cc1ccc(O)cc1)C(=O)N[C@@H](CC(C)C)C(=O)N[C@@H](CC(C)C)C(=O)N[C@@H](CCC(=O)O)C(=O)NCC(=O)NCC(=O)N1CCC[C@H]1C(=O)N[C@@H](CO)C(=O)N[C@@H](CO)C(=O)NCC(=O)N[C@@H](CCC(=O)O)C(=O)N1CCC[C@H]1C(=O)N1CCC[C@H]1C(=O)N1CCC[C@H]1C(=O)N[C@@H](CO)C(N)=O [Example 376] (H-Y[Aib]QGT[αMePhe(2-F)]TSD[4Pal][αMeS]I[αMeL]LD[Orn]K([AEEA-γGlu-γGlu-C18 diacid])AQ[Aib][Orn]FI[dE][αMeY]LLEGGPSSGEPPPS-NH2)	5.42	26	115	0.0354	0.445	1.71

Source: patent US20240270821A1, “GIP/GLP1/GCG TRI-RECEPTOR AGONISTS AND USES THEREOF” (priority 2023, published 2024)
